Patent US5582837A, “Alkyl-substituted cellulose-based sustained-release oral drug dosage forms” (priority 1995, dated 1996)

Test system: isolated colon section
Settings: rabbit, in vivo
Method: Each rabbit was anesthetized using an intramuscular injection of xylazine and ketamine, given at 5-8 mg/kg and 35-40 mg/kg, respectively. The abdomen and the cervical area was then shaved. A surgical cutdown was performed to place a catheter into the jugular vein for maintaining anesthesia throughout the entire exposure period. The maintenance anesthesia was sodium pentobarbitol given at 13 mg/kg as needed. An endotracheal tube was then inserted to facilitate normal respiration.
In the anesthetized animal model a section of the colon, immediately proximal to the cecum, was isolated with the mesenteric vascular system intact. Two ligatures were placed approximately 15-20 cm apart around the colon section. The isolated section was then freed from the remaining intestine by cutting between the ligatures, taking care to leave the vascular and nervous systems intact. A longitudinal incision was made along the entire length of the isolated colon section and the fecal material removed. The isolated colon section is then placed onto a three-cell test chamber which forms the floor of the test cell. The test cell is continuously perfused with Lactated Ringer's solution at a rate of 2.2 ml per minute using a Model 975 Harvard pump. The test chamber is allowed to equilibrate for one hour to maintain a constant temperature of 37° C. (±2° C.). […]
A quantity of the test material was chosen such that the total milligram amount of aspirin delivered over the 6-hour exposure period was equal to the total dose of aspirin provided by the positive control.
After 6 hours of continuous exposure, each rabbit was euthanized using an intravenous injection of sodium pentobarbitol given at approximately 100 mg/kg. The isolated section of exposed colon was removed from the intestine and evaluated for macroscopic evidence of irritation for both degree (0-4) and area (0-6.40 cm^2). […]

## CC(=O)Oc1ccccc1C(=O)O [Aspirin, aspirin]
  Mean Irritation Area: 4.48 cm^2
  Mean Irritation Index: 17.93
  Mean Irritation Source: 4.00
